What was measured:
Scenedesmus acutus [1] = test: Growth inhibition of Scenedesmus acutus assessed as packed cell volume per ml of algal culture volume after 16 hr (reference value: 3.8 ul pcv/ml); type: functional
Scenedesmus acutus [2] = test: Phytotoxicity against Scenedesmus acutus assessed as inhibition of chlorophyll content after 16 hr by spectrophotometry relative to untreated control; type: functional

Row | SMILES | Activity (Scenedesmus acutus [1]) | inhibition (INH) (Scenedesmus acutus [2])
1 | O=C1C2=C(CCCC2)C(=O)N1c1ccc(Br)cc1F | 2.1 uL/ml | 79%
2 | CNc1ncnc2nc(-c3ccc(Cl)cc3)nn12 | 3.7 uL/ml | 8.07%
3 | Nc1ncnc2nc(-c3ccc(Cl)cc3F)nn12 | 3.1 uL/ml | 32.61%
4 | NC1=NC=NC2=NC(c3ccc(Cl)cc3F)NN12 (stereo not given) | 3.4 uL/ml | 10.39%
5 | Nc1ncnc2nc(-c3ccc(Cl)cc3)nn12 | 3.2 uL/ml | 25.55%
6 | NC1=NC=NC2=NC(c3ccc(Cl)cc3)NN12 (stereo not given) | 3.6 uL/ml | 4.81%
7 | CCN/C(=N\C=N\C#N)N/N=C(\C)c1ccccc1 | 3.6 uL/ml | 27.93%
8 | CN/C(=N\C=N\C#N)N/N=C/c1ccccc1 | 3.3 uL/ml | 32.97%
9 | CN/C(=N\C=N\C#N)N/N=C(\C)c1ccccc1 | 3.8 uL/ml | 6.92%
10 | C/C(=N\N/C(N)=N/C=N/C#N)c1ccc(Cl)cc1 | 3.4 uL/ml | 37.18%
11 | COc1ccc(/C=N/N/C(N)=N/C=N/C#N)cc1 | 3 uL/ml | 28.77%
12 | N#C/N=C/N=C(\N)N/N=C/c1ccc(Cl)cc1F | 3 uL/ml | 41.65%
13 | N#C/N=C/N=C(\N)N/N=C/c1ccc(Cl)cc1 | 3.1 uL/ml | 29.21%
14 | O=C1C2=C(CCCC2)C(=O)N1c1ccc(Cl)cc1 [CHLOROPHTHALIUM] | 2.5 uL/ml | 2.34%
15 | CCOc1cc(Oc2ccc(C(F)(F)F)cc2Cl)ccc1[N+](=O)[O-] [OXYFLUORFEN] | 1.4 uL/ml | 2.24%

— ChEMBL document CHEMBL3045801, “Synthesis of 1, 2, 4-Triazolo[1, 5-a]-1, 3, 5-triazine Derivatives for Phytotoxic Activity” (J Pestic Sci, 1995)
